Test results reported in patent US10414774B2, “Compound useful for altering the levels of bile acids for the treatment of diabetes and cardiometabolc disease” (Merck Sharp & Dohme Corp., priority 2016, dated 2019).

target: T1, Human CYP8B1 (Homo sapiens, UniProt Q9UNU6); test: Human CYP8B1 Liver Microsome Assay; settings: Human CYP8B1 IC50, human liver microsomes; substrate 7a-hydroxy-4-cholesten-3-one, NADPH; RapidFire MS detection of 7α,12α-dihydroxy-4-cholesten-3-one
T1 sequence (Q9UNU6 1-501): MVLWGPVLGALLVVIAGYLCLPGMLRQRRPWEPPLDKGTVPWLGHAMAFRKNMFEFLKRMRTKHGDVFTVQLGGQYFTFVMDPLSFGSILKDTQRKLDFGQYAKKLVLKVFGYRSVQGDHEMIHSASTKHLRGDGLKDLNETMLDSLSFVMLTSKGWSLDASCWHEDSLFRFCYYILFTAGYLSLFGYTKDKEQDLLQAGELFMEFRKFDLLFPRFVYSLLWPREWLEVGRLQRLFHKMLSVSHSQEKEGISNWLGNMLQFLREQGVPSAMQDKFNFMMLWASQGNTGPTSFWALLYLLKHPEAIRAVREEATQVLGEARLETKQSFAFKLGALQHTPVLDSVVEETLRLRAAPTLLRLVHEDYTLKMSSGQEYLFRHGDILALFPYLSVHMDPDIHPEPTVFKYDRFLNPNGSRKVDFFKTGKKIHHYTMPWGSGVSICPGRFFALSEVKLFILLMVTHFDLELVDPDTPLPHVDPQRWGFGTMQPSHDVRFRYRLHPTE
Experimental: To a 384 well polypropylene plate (Corning 3656), 250 nl of inhibitor in 100% DMSO (1.25% final DMSO concentration) was pre-plated using an Echo liquid handler (Labcyte Inc.). Human liver microsomes (Xenotech) were diluted in of 0.1 M phosphate buffer, pH 7.4, at a concentration of 65 μg/ml and 15 μL was added to the 384 well plate. The plates were incubated at ambient room temperature for 30 minutes. After pre-incubation with inhibitor, the reaction was initiated by adding 5 μl of substrate solution (4.0 μM 7a-hydroxy-4-cholesten-3-one (Toronto Research Chemicals), 2 mM of NADPH (Sigma), 0.1 M phosphate buffer (pH 7.4). The reaction was carried out for 45 minutes at ambient room temperature and was quenched by the addition of 50 μl of acetonitrile+0.1% vol/vol formic acid (FA)+300 nM 7α-hydroxy-4-cholesten-3-one-d7 (Toronto Research Chemicals). The plates were sealed and centrifuged at 3000 rpm for 5 minutes. Plates were loaded onto the Agilent RapidFire RF300 HTMS system, wherein samples were sipped for 600 ms, and the sip sensor detection signals the diversion of sample from the loop onto a C4 solid phase extraction (SPE) cartridge, where salts are washed off for 2500 ms with a mobile phase of water with 0.1% vol/vol FA at a flow rate of 1.5 ml/min. The column path was switched, and the sample was eluted off the cartridge and flowed into the mass spectrometer for 3000 ms with a mobile phase of acetonitrile and 0.1% vol/vol FA at a flow rate of 1.25 ml/min. The aspirator tip was washed separately with water and acetonitrile between sample aspirations (each for 600 ms) to minimize carryover contamination. Mass spectrometry was carried out using a Sciex API4000 triple quadrupole mass spectrometer (Applied Biosystems, Concord, ON, Canada) equipped with electrospray ionization (ESI) operated in the positive-ion mode. The product 7α,12α-dihydroxy-4-cholesten-3-one and internal standard 7α-hydroxy-4-cholsten-3-one-d7 were detected using multiple reaction monitoring (MRM) with Q1/Q3 transitions at m/z 417.3 to 381.3 and m/z 408.3 to 390.3, respectively, with a dwell time of 100 ms and a collision energy of 24 V for each transition. The mass spectrometer used an ESI voltage of 5000 V and a source temperature of 650° C. Extracted ion chromatograms for each transition were integrated and processed using the RapidFire Integrator software. The data for each well were normalized by monitoring product conversion with the ratio of AUCproduct/(AUCinternal standard). The data was then fitted to a four parameter logistic fit using ActivityBase Software to calculate an IC50 of the inhibitor.

IC50 [nM] | Compound
2.9 | COc1ccc2nc(C)c(C#N)c(N3CC[C@H](C(=O)N4CCn5c(nnc5C(F)(F)F)C4)[C@H](C)C3)c2c1 [Example 32, 6-methoxy-2-methyl-4-[(3S,4S)-3-methyl-4-{[3-(trifluoromethyl)-5,6-dihydro[1,2,4]triazolo[4,3-a]pyrazin-7(8H)-yl]carbonyl}piperidin-1-yl]quinoline-3-carbonitrile]
0.89 | C[C@@H]1CN(c2c(C#N)cnc3c(F)c(C4CC4)ccc23)CC[C@@H]1C(=O)N1CCn2c(nnc2C(F)(F)F)C1 [Example 67, 7-cyclopropyl-8-fluoro-4-[(3S,4S)-3-methyl-4-{[3-(trifluoromethyl)-5,6-dihydro[1,2,4]triazolo[4,3-a]pyrazin-7(8H)-yl]carbonyl}piperidin-1-yl]quinoline-3-carbonitrile]
17 | Cc1nc2ccc(Cl)cc2c(N2CC[C@H](C(=O)N3CCc4[nH]ncc4C3)[C@H](C)C2)c1C#N [Example 95, 6-chloro-2-methyl-4-[(3S,4S)-3-methyl-4-(1,4,6,7-tetrahydro-5H-pyrazolo[4,3-c]pyridin-5-ylcarbonyl)piperidin-1-yl]quinoline-3-carbonitrile]
1 | C[C@@H]1CN(c2c(C#N)cnc3c(F)c(Cl)c(F)cc23)CC[C@@H]1C(=O)N1CCn2c(nnc2C(F)(F)F)C1 [Example 15, 7-chloro-6,8-difluoro-4-[(3S,4S)-3-methyl-4-{[3-(trifluoromethyl)-5,6-dihdyro[1,2,4]triazolo[4,3-a]pyrazin-7(8H)-yl]carobnyl}piperidin-1-yl]quinoline-3-carbonitrile]
6140 | CO[C@H]1CN(c2c(C#N)cnc3ccc(Cl)cc23)CCC1C(=O)N1CCn2c(nnc2C(F)(F)F)C1 (stereo in doubt) [Example 72d, 6-chloro-4-[(3R,4R)-3-methoxy-4-{[3-(trifluoromethyl)-5,6-dihydro[1,2,4]triazolo[4,3-a]pyrazin-7(8H)-yl]carbonyl}piperidin-1-yl]quinoline-3-carbonitrile]
1 | C[C@@H]1CN(c2c(C#N)cnc3cc(C(C)(F)F)ccc23)CC[C@@H]1C(=O)N1CCn2c(nnc2C(F)(F)F)C1 [Example 78, 7-(1,1-difluoroethyl)-4-[(3S,4S)-3-methyl-4-{[3-(trifluoromethyl)-5,6-dihydro[1,2,4]triazolo[4,3-a]pyrazin-7(8H)-yl]carbonyl}piperidin-1-yl]quinoline-3-carbonitrile]
169 | N#Cc1cnc2ccc(Cl)cc2c1N1CCC(F)(C(=O)N2CCn3c(nnc3C(F)(F)F)C2)CC1 [Example 120, 6-chloro-4-(4-fluoro-4-{[3-(trifluoromethyl)-5,6-dihydro[1,2,4]triazolo[4,3-a]pyrazin-7(8H)-yl]carbonyl}piperidin-1-yl)quinoline-3-carbonitrile]
0.3 | C[C@@H]1CN(c2c(C#N)cnc3cc(OC4CC4)ccc23)CC[C@@H]1C(=O)N1CCn2c(nnc2C(F)(F)F)C1 [Example 38, 7-(cyclopropyloxy)-4-[(3S,4S)-3-methyl-4-{[3-(trifluoromethyl)-5,6-dihydro[1,2,4]triazolo[4,3-a]pyrazin-7(8H)-yl]carbonyl}piperidin-1-yl]quinoline-3-carbonitrile]
52 | Cc1nc2ccc(Cl)cc2c(N2CC[C@H](C(=O)N3CCn4cc(C(F)(F)F)nc4C3)[C@H](C)C2)c1C#N [Example 99, 6-chloro-2-methyl-4-[(3S,4S)-3-methyl-4-{[2-(trifluoromethyl)-5,6-dihydroimidazo[1,2-a]pyrazin-7(8H)-yl]carbonyl}piperidin-1-yl]quinoline-3-carbonitrile]
1930 | N#Cc1cnc2ccc(Cl)cc2c1N1CC[C@@]2(C(=O)N3CCn4c(nnc4C(F)(F)F)C3)C[C@H]2C1 (single isomer, unassigned) [Example 81b]
878 | N#Cc1cnc2ccc(Cl)cc2c1N1CCC(C(=O)N2CCn3cncc3C2)CC1 [Example 105, 6-chloro-4-[4-(5,6-dihydroimidazo[1,5-a]pyrazin-7(8H)-ylcarbonyl)piperidin-1-yl]quinoline-3-carbonitrile]
118 | Cc1ccc2nc(C)c(C#N)c(N3CCC(C(=O)N4CCn5c(nnc5C(F)(F)F)C4)CC3)c2c1 [Example 52, 2,6-dimethyl-4-(4-(3-(trifluoromethyl)-5,6,7,8-tetrahydro-[1,2,4]triazolo[4,3-a]pyrazine-7-carbonyl)piperidin-1-yl)quinoline-3-carbonitrile]
0.7 | CCOc1ccc2c(N3CC[C@H](C(=O)N4CCn5c(nnc5C(F)(F)F)C4)[C@H](C)C3)c(C#N)cnc2c1 [Example 39, 7-ethoxy-4-[(3S,4S)-3-methyl-4-{[3-(trifluoromethyl)-5,6-dihydro[1,2,4]triazolo[4,3-a]pyrazin-7(8H)-yl]carbonyl}piperidin-1-yl]quinoline-3-carbonitrile]
0.4 | C[C@@H]1CN(c2c(C#N)cnc3cc(-c4ncco4)ccc23)CC[C@@H]1C(=O)N1CCn2c(nnc2C(F)(F)F)C1 [Example 89, 4-((3S,4S)-3-methyl-4-(3-(trifluoromethyl)-5,6,7,8-tetrahydro-[1,2,4]triazolo[4,3-a]pyrazine-7-carbonyl)piperidin-1-yl)-7-(oxazol-2-yl)quinoline-3-carbonitrile]
0.22 | C[C@@H]1CN(c2c(C#N)cnc3cc(OC(F)(F)F)ccc23)CC[C@@H]1C(=O)N1CCn2c(nnc2C(F)(F)F)C1 [Example 22, 4-[(3S,4S)-3-methyl-4-{[3-(trifluoromethyl)-5,6-dihydro[1,2,4]triazolo[4,3-a]pyrazin-7(8H)-yl]carbonyl}piperidin-1-yl]-7-(trifluoromethoxy)quinoline-3-carbonitrile]
1.4 | CC1CN(c2c(C#N)cnc3ccc(Cl)cc23)CCC1C(=O)N1CCn2c(nnc2C(F)(F)F)C1 (stereo not shown) [Example 116, 6-chloro-4-(3-methyl-4-(3-(trifluoromethyl)-5,6,7,8-tetrahydro-[1,2,4]triazolo[4,3-a]pyrazine-7-carbonyl)piperidin-1-yl)quinoline-3-carbonitrile]
0.4 | C[C@@H]1CN(c2c(C#N)cnc3c(F)cc(C4CC4)cc23)CC[C@@H]1C(=O)N1CCn2c(nnc2C(F)(F)F)C1 [Example 86, 6-cyclopropyl-8-fluoro-4-((3S,4S)-3-methyl-4-(3-(trifluoromethyl)-5,6,7,8-tetrahydro-[1,2,4]triazolo[4,3-a]pyrazine-7-carbonyl)piperidin-1-yl)quinoline-3-carbonitrile]
16 | CC1CC(C(=O)N2CCn3c(nnc3C(F)(F)F)C2)CCN1c1c(C#N)cnc2ccc(Cl)cc12 (single isomer, unassigned) [Example 73c, 6-chloro-4-[(2R,4S) or (2S,4R)-2-methyl-4-{[3-(trifluoromethyl)-5,6-dihydro[1,2,4]triazolo[4,3-a]pyrazin-7(8H)-yl]carbonyl}piperidin-1-yl]quinoline-3-carbonitrile]
1.9 | C[C@@H]1CN(c2c(C#N)c[n+]([O-])c3ccc(Cl)cc23)CC[C@@H]1C(=O)N1CCn2c(nnc2C(F)(F)F)C1 [Example 123, 6-chloro-3-cyano-4-((3S,4S)-3-methyl-4-(3-(trifluoromethyl)-5,6,7,8-tetrahydro-[1,2,4]triazolo[4,3-a]pyrazine-7-carbonyl)piperidin-1-yl)quinoline 1-oxide]
4.81 | C[C@@H]1CN(c2c(C#N)cnc3nc(C(F)(F)F)ccc23)CC[C@@H]1C(=O)N1CCn2c(nnc2C(F)(F)F)C1 [Example 21, 4-[(3S,4S)-3-methyl-4-{[3-(trifluoromethyl)-5,6-dihydro[1,2,4]triazolo[4,3-a]pyrazin-7(8H)-yl]carbonyl}piperidin-1-yl]-7-(trifluoromethyl)-1,8-naphthyridine-3-carbonitrile]
98 | N#Cc1cnc2ccc(Cl)cc2c1N1CCN(C(=O)N2CCn3c(nnc3C(F)(F)F)C2)C2(CC2)C1 [Example 127, 6-chloro-4-(4-{[3-(trifluoromethyl)-5,6-dihydro[1,2,4]triazolo[4,3-a]pyrazin-7(8H)-yl]carbonyl}-4,7-diazaspiro[2.5]oct-7-yl)quinoline-3-carbonitrile]
1.1 | C[C@@H]1CN(c2c(C#N)cnc3c(F)cccc23)CC[C@@H]1C(=O)N1CCn2c(nnc2C(F)(F)F)C1 [Example 12, 8-fluoro-4-[(3S,4S)-3-methyl-4-{[3-(trifluoromethyl)-5,6-dihydro[1,2,4]triazolo[4,3-a]pyrazin-7(8H)-yl]carbonyl}piperidin-1-yl]quinoline-3-carbonitrile]
5.6 | N#Cc1cnc2ccc(Cl)cc2c1N1CCC(C(=O)N2CCc3c(C4CC4)n[nH]c3C2)CC1 [Example 107, 6-chloro-4-{4-[(3-cyclopropyl-1,4,5,7-tetrahydro-6H-pyrazolo[3,4-c]pyridin-6-yl)carbonyl]piperidin-1-yl}quinoline-3-carbonitrile]
863 | N#Cc1cnc2ccc(Cl)cc2c1N1CCC(C(=O)N2CCn3cc(C(F)(F)F)nc3C2)CC1 [Example 104, 6-chloro-4-(4-{[2-(trifluoromethyl)-5,6-dihydroimidazo[1,2-a]pyrazin-7(8H)-yl]carbonyl}piperidin-1-yl)quinoline-3-carbonitrile]
142 | N#Cc1cnc2ccc(Cl)cc2c1N1CCC(C(=O)N2CCc3cn[nH]c3C2)CC1 [Example 108, 6-chloro-4-[4-(1,4,5,7-tetrahydro-6H-pyrazolo[3,4-c]pyridin-6-ylcarbonyl)piperidin-1-yl]quinoline-3-carbonitrile]
